Measured values published in patent US20180199572A1, “Herbicidal Composition Comprising Cinmethylin and Metolachlor or S-Metolachlor” (BASF Agro B.V., priority 2015, published 2018).

Columns and labels:
Assay in all cases: Greenhouse pre-emergence herbicidal activity
Type in all cases: in vivo
Conditions in all cases: 20 DAT
[1] = system: Abutilon theophrasti (ABUTH)
[2] = system: Alopecurus myosuroides (ALOMY)
[3] = system: Anthemis arvensis (ANTAR)
[4] = system: Avena fatua (AVEFA)
[5] = system: Chenopodium album (CHEAL)
[6] = system: Lolium multiflorum (LOLMU)
[7] = system: Polygonum convolvulus (POLCO)
[8] = system: Setaria viridis (SETVI)
[9] = system: Stellaria media (STEME)
[10] = solo herbicide A, use rate 31.25 g ai/ha
[11] = solo herbicide A, use rate 62.5 g ai/ha
[12] = solo herbicide A, use rate 125 g ai/ha
[13] = solo S-metolachlor, use rate 62.5 g ai/ha
[14] = solo S-metolachlor, use rate 125 g ai/ha
[15] = solo S-metolachlor, use rate 250 g ai/ha

(±)-2-exo-(2-Methylbenzyloxy)-1-methyl-4-isopropyl-7-oxabicyclo[2.2.1]heptane [herbicide A]
herbicidal activity (%) [1, 10]: 30% | herbicidal activity (%) [1, 11]: 60% | herbicidal activity (%) [2, 11]: 98% | herbicidal activity (%) [2, 12]: 98% | herbicidal activity (%) [3, 10]: 0% | herbicidal activity (%) [3, 11]: 0% | herbicidal activity (%) [3, 12]: 0% | herbicidal activity (%) [4, 12]: 25% | herbicidal activity (%) [5, 10]: 40% | herbicidal activity (%) [6, 12]: 85% | herbicidal activity (%) [7, 12]: 0% | herbicidal activity (%) ([7]; solo herbicide A, use rate 250 g ai/ha): 15% | herbicidal activity (%) [8, 10]: 90% | herbicidal activity (%) [9, 11]: 30% | herbicidal activity (%) [9, 12]: 40%

CCc1cccc(C)c1N(C(=O)CCl)[C@@H](C)COC [S-metolachlor]
herbicidal activity (%) [1, 13]: 0% | herbicidal activity (%) [1, 14]: 0% | herbicidal activity (%) [2, 14]: 40% | herbicidal activity (%) [2, 15]: 50% | herbicidal activity (%) [3, 13]: 0% | herbicidal activity (%) [3, 14]: 0% | herbicidal activity (%) [3, 15]: 25% | herbicidal activity (%) [4, 15]: 25% | herbicidal activity (%) [5, 13]: 0% | herbicidal activity (%) [6, 15]: 60% | herbicidal activity (%) [7, 15]: 25% | herbicidal activity (%) ([7]; solo S-metolachlor, use rate 500 g ai/ha): 20% | herbicidal activity (%) [8, 13]: 80% | herbicidal activity (%) [9, 14]: 35% | herbicidal activity (%) [9, 15]: 65%
